Test results as given in patent US10934311B2, “Heterocyclic compound used as FGFR inhibitor” (Hangzhou Innogate Pharma Co., Ltd., priority 2016, dated 2021).

Tests used:
FGFR3 = FGFR3 (Homo sapiens, UniProt P22607); test: FGFR3 kinase activity inhibition (Caliper mobility shift assay); format: biochemical; conditions: read-out: FGFR kinase activity inhibition (IC50, nM) FGFR3
Method: (§1) 1. FGFR1, FGFR2, FGFR3, and FGFR4 Kinase Activity Inhibition Experiments The FGFR1, FGFR2, FGFR3, and FGFR4 protein kinase activities were measured using the Caliper mobility shift assay. Compounds were solubilized in DMSO and diluted in kinase buffer. 5 µL of compound at 5 times final concentration (10% DMSO) was added to a 384-well plate. 10 μL of a 2.5-fold enzyme (FGFR1, FGFR2, FGFR3, and FGFR4, respectively) solution was added and incubated at room temperature for 10 minutes, followed by the addition of […] of a 2.5-fold substrate (FAM-labeled peptide and ATP) solution. The reaction was incubated for 30-60 minutes at 28° C., then stopped by adding 25 μL of stop solution (pH 7.5 100 mM HEPES, 0.015% Brij-35, 0.2% Coating Reagent #3, 50 mM EDTA). Conversion data was read on the Caliper EZ Reader II (Caliper Life Sciences). The conversion rate was converted into inhibition rate (% inhibition rate=(max−sample conversion rate)/(max−min)*100). Where max refers to the conversion of the DMSO control and min refers to the conversion of the non-enzymatic live control. With the compound concentration and inhibition rate plotted on the abscissa and the vertical axis, the curve was fitted using XLFit excel add-in version 4.3.1 software and the IC50 was calculated.

FGFR1 = FGFR1 (Homo sapiens, UniProt P11362); test: FGFR1 kinase activity inhibition (Caliper mobility shift assay); format: biochemical; conditions: read-out: FGFR kinase activity inhibition (IC50, nM) FGFR1
Method: as §1

FGFR2 = FGFR2 (Homo sapiens, UniProt P21802); test: FGFR2 kinase activity inhibition (Caliper mobility shift assay); format: biochemical; conditions: read-out: FGFR kinase activity inhibition (IC50, nM) FGFR2
Method: as §1

FGFR4 = FGFR4 (Homo sapiens, UniProt P22455); test: FGFR4 kinase activity inhibition (Caliper mobility shift assay); format: biochemical; conditions: read-out: FGFR kinase activity inhibition (IC50, nM) FGFR4
Method: as §1

SNU-16 tumor cells = test: Inhibition test against SNU-16 tumor cell proliferation (CTG); format: cell-based; conditions: Homo sapiens, 72 hours drug treatment, CTG readout, read-out: Inhibits of SNU-16 tumor cells proliferation (IC50, nM) SNU-16
Method: 2. Compounds' Inhibition Test Against SNU-16 Tumor Cell Proliferation
SNU-16 cell suspension was adjusted to 5.56×10e4/mL with RPMI 1640 medium. Add 90 μL of cell suspension to 96-well cell culture plates per well for a final cell concentration of 5000 cells/well. The test compound was dissolved in DMSO as a 10 mM stock solution. The 3× series of serial dilutions were prepared with stock and DMSO and then diluted 100-fold with media. Finally, 10 μL of the corresponding 10× solution was added to each well of each cell, and each drug concentration was 2 replicates. The final concentration of each compound was 1000 nM, 333.3 nM, 111.1 nM, 37.04 nM, 12.35 nM, 4.115 nM, 1.372 nM, 0.457 nM, 0.152 nM, the final concentration of DMSO per well is 0.1%. Place in a 37° C., 5% CO2 incubator for 72 hours. After 72 hours of drug treatment, add 50 μL (1/2 culture volume) of CTG solution that has been previously thawed and equilibrated to room temperature per well according to CTG instructions, mix for 2 minutes using a microplate shaker, and allow to stand at room temperature for 10 minutes. The Envision 2104 reader was used to determine the […] signal value. Cell viability formula: Vsample/Vvehicle control×100% for calculation. Wherein Vsample is the reading of the drug treatment group and, Vvehicle control is the average of the solvent control group. Using the GraphPad Prism 5.0 software, a sigmoidal dose-survival curve was plotted using a non-linear regression model and IC50 values were calculated.

Sequence of FGFR4 (P22455 22-802): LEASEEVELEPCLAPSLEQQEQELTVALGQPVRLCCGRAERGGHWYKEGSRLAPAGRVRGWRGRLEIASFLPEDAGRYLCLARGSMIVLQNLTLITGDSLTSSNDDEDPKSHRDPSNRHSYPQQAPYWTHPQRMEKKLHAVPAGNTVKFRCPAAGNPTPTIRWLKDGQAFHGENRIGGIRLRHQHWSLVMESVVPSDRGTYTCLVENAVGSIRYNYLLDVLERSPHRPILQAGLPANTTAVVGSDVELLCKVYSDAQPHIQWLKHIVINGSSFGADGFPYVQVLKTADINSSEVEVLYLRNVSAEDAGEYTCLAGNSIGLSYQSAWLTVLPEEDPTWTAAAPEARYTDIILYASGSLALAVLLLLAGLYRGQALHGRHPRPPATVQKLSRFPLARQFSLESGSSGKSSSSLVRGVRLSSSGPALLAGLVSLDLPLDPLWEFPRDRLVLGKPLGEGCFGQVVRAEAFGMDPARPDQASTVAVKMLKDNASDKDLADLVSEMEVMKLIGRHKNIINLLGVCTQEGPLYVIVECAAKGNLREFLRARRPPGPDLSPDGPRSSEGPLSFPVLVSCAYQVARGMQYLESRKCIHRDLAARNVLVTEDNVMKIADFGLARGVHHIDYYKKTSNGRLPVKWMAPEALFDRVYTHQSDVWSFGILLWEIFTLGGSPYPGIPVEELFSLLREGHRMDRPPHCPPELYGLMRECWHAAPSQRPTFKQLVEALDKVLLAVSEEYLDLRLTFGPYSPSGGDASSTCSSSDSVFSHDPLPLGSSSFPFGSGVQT
Sequence of FGFR3 (P22607 23-806): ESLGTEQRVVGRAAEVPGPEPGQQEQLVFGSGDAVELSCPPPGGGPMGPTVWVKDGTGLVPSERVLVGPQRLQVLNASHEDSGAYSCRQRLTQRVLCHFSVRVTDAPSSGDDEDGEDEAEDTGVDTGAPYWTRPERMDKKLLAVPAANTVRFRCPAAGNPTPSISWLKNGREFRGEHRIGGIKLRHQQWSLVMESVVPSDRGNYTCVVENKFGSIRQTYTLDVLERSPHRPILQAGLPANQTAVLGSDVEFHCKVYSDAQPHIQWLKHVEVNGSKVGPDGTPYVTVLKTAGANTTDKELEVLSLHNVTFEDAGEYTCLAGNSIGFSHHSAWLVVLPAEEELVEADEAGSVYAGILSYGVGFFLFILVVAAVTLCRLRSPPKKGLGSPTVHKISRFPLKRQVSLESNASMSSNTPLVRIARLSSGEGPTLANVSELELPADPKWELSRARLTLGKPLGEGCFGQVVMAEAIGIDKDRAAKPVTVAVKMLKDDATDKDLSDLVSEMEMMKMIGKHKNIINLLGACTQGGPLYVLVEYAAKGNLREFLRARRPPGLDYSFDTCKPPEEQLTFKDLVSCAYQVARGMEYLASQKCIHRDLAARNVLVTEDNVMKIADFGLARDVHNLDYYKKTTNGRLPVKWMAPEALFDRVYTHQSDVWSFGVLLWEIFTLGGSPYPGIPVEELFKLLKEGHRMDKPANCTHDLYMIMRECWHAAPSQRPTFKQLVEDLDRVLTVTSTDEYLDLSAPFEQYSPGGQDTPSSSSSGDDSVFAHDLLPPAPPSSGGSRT
Sequence of FGFR2 (P21802 22-821): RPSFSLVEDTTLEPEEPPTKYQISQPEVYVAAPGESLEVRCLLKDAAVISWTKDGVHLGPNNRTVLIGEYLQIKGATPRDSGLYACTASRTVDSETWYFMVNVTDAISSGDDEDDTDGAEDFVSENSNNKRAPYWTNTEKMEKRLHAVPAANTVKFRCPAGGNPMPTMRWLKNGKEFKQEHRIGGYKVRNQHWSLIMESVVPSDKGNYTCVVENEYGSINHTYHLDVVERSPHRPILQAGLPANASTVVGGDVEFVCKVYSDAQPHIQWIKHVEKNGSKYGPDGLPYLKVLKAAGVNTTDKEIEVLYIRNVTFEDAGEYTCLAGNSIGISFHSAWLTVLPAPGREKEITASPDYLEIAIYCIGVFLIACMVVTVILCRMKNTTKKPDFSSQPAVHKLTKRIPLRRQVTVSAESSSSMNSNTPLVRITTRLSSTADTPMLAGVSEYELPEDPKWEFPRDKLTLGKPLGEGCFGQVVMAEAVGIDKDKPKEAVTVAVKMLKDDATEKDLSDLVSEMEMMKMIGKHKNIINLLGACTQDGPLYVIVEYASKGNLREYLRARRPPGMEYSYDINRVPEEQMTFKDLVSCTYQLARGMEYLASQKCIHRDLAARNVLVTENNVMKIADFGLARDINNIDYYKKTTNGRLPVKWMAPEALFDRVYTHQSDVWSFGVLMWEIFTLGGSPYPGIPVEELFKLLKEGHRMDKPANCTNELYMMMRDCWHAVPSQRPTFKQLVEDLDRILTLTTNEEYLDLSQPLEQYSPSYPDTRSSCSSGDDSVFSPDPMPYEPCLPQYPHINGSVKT
Sequence of FGFR1 (P11362 22-822): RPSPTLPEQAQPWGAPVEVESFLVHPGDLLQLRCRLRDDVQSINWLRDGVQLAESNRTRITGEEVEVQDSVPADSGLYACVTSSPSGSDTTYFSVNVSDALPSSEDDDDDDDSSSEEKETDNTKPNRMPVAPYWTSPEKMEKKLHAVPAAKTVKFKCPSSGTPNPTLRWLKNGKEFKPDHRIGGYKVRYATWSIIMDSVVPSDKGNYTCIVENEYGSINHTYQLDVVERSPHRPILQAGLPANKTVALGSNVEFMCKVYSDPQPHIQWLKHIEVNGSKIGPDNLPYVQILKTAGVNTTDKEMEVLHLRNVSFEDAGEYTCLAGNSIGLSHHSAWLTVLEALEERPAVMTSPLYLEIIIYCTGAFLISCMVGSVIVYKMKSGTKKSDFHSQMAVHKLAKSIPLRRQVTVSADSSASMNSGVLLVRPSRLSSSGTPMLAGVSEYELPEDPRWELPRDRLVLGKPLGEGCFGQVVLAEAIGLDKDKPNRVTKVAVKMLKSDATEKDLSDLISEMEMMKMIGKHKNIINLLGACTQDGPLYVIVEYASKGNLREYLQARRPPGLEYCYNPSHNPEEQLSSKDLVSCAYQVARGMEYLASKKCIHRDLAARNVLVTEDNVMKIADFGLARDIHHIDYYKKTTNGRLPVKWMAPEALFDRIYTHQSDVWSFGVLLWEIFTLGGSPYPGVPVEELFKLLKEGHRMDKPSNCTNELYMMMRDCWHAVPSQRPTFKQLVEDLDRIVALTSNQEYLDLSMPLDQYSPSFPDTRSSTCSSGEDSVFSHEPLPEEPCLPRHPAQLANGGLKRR

SMILES	IC50 (FGFR3) [nM]	IC50 (FGFR1) [nM]	IC50 (FGFR2) [nM]	IC50 (FGFR4) [nM]	IC50 (SNU-16 tumor cells) [nM]
COc1cc(OC)c(Cl)c(NC(=O)N(C)c2cc(Nc3ccc4c(c3)OCCN(C)CCO4)ncn2)c1Cl [Compound 1]	< 20	< 20			
COc1cc(OC)c(Cl)c(NC(=O)N(C)c2cc(Nc3ccc(N4CC5CN(C)CC(C4)C5(F)F)cc3)ncn2)c1Cl [Compound 3]	< 10	< 10			< 10
C=CC(=O)Nc1cc2c(cc1Nc1cc(N(C)C(=O)Nc3c(Cl)c(OC)cc(OC)c3Cl)ncn1)OC[C@@H]1CN(C)CCN21 [Compound 5S]	> 1000	> 1000	> 1000	< 20	
COc1cc(OC)c(Cl)c(NC(=O)N(C)c2cc(Nc3ccc4c(c3)OC[C@H]3CN(C5CC5)CCN43)ncn2)c1Cl [Compound 6R]		< 20	< 50		
COc1cc(OC)c(Cl)c(NC(=O)N(C)c2cc(Nc3ccc4c(c3)OC[C@H]3CN(C(C)=O)CCN43)ncn2)c1Cl [Compound 7R]		< 10	< 10		
COc1cc(OC)c(Cl)c(NC(=O)N(C)c2cc(Nc3ccc4c(c3)OC[C@H]3COCCN43)ncn2)c1Cl [Compound 8R]		< 20	< 20		
COc1cc(OC)c(Cl)c(NC(=O)N(C)c2cc(Nc3ccc4c(c3)OC[C@H]3CN(C)CC(=O)N43)ncn2)c1Cl [Compound 9R]		< 10	< 10		
CCS(=O)(=O)N1CCN2c3ccc(Nc4cc(N(C)C(=O)Nc5c(Cl)c(OC)cc(OC)c5Cl)ncn4)cc3OC[C@H]2C1 [Compound 10R]		< 50	< 50		
C=CC(=O)Nc1ccc(CN(C(=O)Nc2c(Cl)c(OC)cc(OC)c2Cl)c2cc(Nc3ccc4c(c3)OC[C@@H]3CN(C)CCN43)ncn2)cc1 [Compound 11S]		< 50		< 200	

Next, values leading:

IC50 (FGFR3) [nM]	IC50 (FGFR1) [nM]	IC50 (FGFR2) [nM]	IC50 (FGFR4) [nM]	IC50 (SNU-16 tumor cells) [nM]	SMILES
< 10	< 10	< 10	< 200	< 10	COc1cc(OC)c(Cl)c(NC(=O)N(C)c2cc(Nc3ccc4c(c3)OC[C@H]3CN(C)CCN43)ncn2)c1Cl [Compound 2R]
< 10	< 10	< 10	< 200	< 10	COc1cc(OC)c(Cl)c(NC(=O)N(C)c2cc(Nc3ccc4c(c3)OC[C@@H]3CN(C)CCN43)ncn2)c1Cl [Compound 2S]
< 10	< 10				COc1cc(OC)c(Cl)c(NC(=O)N(C)c2cc(Nc3ccc4c(c3)OCC3CN(C)CCN43)ncn2)c1Cl (stereo not shown) [Compound 2]
	< 10	< 10			CCN1CCN2c3ccc(Nc4cc(N(C)C(=O)Nc5c(Cl)c(OC)cc(OC)c5Cl)ncn4)cc3OC[C@H]2C1 [Compound 4R]
< 10	< 10	< 10	< 200	< 10	CCN1CCN2c3ccc(Nc4cc(N(C)C(=O)Nc5c(Cl)c(OC)cc(OC)c5Cl)ncn4)cc3OC[C@@H]2C1 [Compound 4S]
